From PubChem BioAssay (NCI)
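Cells were grown in 96-well plates and exposed to each compound for 48 hours at five concentrations; endpoints were interpolated linearly between bracketing concentrations, or set to the highest concentration if not reached. GI50 is the concentration that inhibits growth by half. Definition used: TGI = concentration required for complete inhibition of growth.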

How the values were obtained:
Experiment in all cases: growth of human tumour cells (NCI), 48 h
TK-10 renal = system: TK-10 renal
M14 melanoma = system: M14 melanoma
HOP-62 NSCLC = system: HOP-62 NSCLC
A498 renal = system: A498 renal
SK-OV-3 ovarian = system: SK-OV-3 ovarian
BT-549 breast = system: BT-549 breast
SNB-19 CNS = system: SNB-19 CNS
DU-145 prostate = system: DU-145 prostate
SF-539 CNS = system: SF-539 CNS
MDA-MB-231 breast = system: MDA-MB-231 breast
SK-MEL-5 melanoma = system: SK-MEL-5 melanoma
SW-620 colon = system: SW-620 colon
UACC-62 melanoma = system: UACC-62 melanoma
IGROV1 ovarian = system: IGROV1 ovarian
SK-MEL-2 melanoma = system: SK-MEL-2 melanoma
HT29 colon = system: HT29 colon
SF-268 CNS = system: SF-268 CNS
A549 NSCLC = system: A549 NSCLC
T-47D breast = system: T-47D breast
SK-MEL-28 melanoma = system: SK-MEL-28 melanoma
PC-3 prostate = system: PC-3 prostate
ACHN renal = system: ACHN renal
SN12C renal = system: SN12C renal
CAKI-1 renal = system: CAKI-1 renal
SNB-75 CNS = system: SNB-75 CNS
OVCAR-8 ovarian = system: OVCAR-8 ovarian
CCRF-CEM leukemia = system: CCRF-CEM leukemia
UO-31 renal = system: UO-31 renal
OVCAR-3 ovarian = system: OVCAR-3 ovarian
MCF7 breast = system: MCF7 breast
SF-295 CNS = system: SF-295 CNS
RXF 393 renal = system: RXF 393 renal
786-0 renal = system: 786-0 renal
RPMI-8226 leukemia = system: RPMI-8226 leukemia
EKVX NSCLC = system: EKVX NSCLC
LOX IMVI melanoma = system: LOX IMVI melanoma
NCI-H226 lung = system: NCI-H226 lung
NCI/ADR-RES ovarian = system: NCI/ADR-RES ovarian
OVCAR-4 ovarian = system: OVCAR-4 ovarian
HOP-92 NSCLC = system: HOP-92 NSCLC
UACC-257 melanoma = system: UACC-257 melanoma
NCI-H23 lung = system: NCI-H23 lung
HCT-116 colon = system: HCT-116 colon
OVCAR-5 ovarian = system: OVCAR-5 ovarian
COLO 205 colon = system: COLO 205 colon
HL-60(TB) leukemia = system: HL-60(TB) leukemia
HCC-2998 colon = system: HCC-2998 colon
MDA-MB-435 = system: MDA-MB-435
KM12 colon = system: KM12 colon
NCI-H460 lung = system: NCI-H460 lung
HCT-15 colon = system: HCT-15 colon
MOLT-4 leukemia = system: MOLT-4 leukemia
U251 CNS = system: U251 CNS
K-562 leukemia = system: K-562 leukemia
NCI-H522 lung = system: NCI-H522 lung
HS 578T breast = system: HS 578T breast
MALME-3M melanoma = system: MALME-3M melanoma
SR leukemia = system: SR leukemia

SMILES: C#CC1(O)C(COP(=O)(O)OCC(COP(=O)(O)OCC2OC(n3cc(F)c(=O)[nH]c3=O)CC2O)OCCCCCCCCCCCCCCCCCC)OC(n2ccc(N)nc2=O)C1O (configuration not stated)
- GI50 (TK-10 renal): 241 nM
- TGI (TK-10 renal): > 29000 nM
- GI50 (M14 melanoma): 215 nM
- TGI (M14 melanoma): 6450 nM
- GI50 (HOP-62 NSCLC): 63.1 nM
- TGI (HOP-62 NSCLC): 10600 nM
- GI50 (A498 renal): 421 nM
- TGI (A498 renal): 12100 nM
- GI50 (SK-OV-3 ovarian): 10100 nM
- TGI (SK-OV-3 ovarian): 76300 nM
- GI50 (BT-549 breast): 155 nM
- TGI (BT-549 breast): 5410 nM
- GI50 (SNB-19 CNS): 313 nM
- TGI (SNB-19 CNS): > 57200 nM
- GI50 (DU-145 prostate): 106 nM
- TGI (DU-145 prostate): > 71900 nM
- GI50 (SF-539 CNS): < 10 nM
- TGI (SF-539 CNS): 3330 nM
- GI50 (MDA-MB-231 breast): 320 nM
- GI50 (SK-MEL-5 melanoma): 275 nM
- TGI (SK-MEL-5 melanoma): 9290 nM
- GI50 (SW-620 colon): 26.9 nM
- TGI (SW-620 colon): > 100000 nM
- GI50 (UACC-62 melanoma): 196 nM
- TGI (UACC-62 melanoma): 2690 nM
- GI50 (IGROV1 ovarian): 236 nM
- GI50 (SK-MEL-2 melanoma): 481 nM
- TGI (SK-MEL-2 melanoma): 6240 nM
- GI50 (HT29 colon): 104 nM
- TGI (HT29 colon): > 71900 nM
- GI50 (SF-268 CNS): 102 nM
- TGI (SF-268 CNS): 9450 nM
- GI50 (A549 NSCLC): 117 nM
- TGI (A549 NSCLC): > 68300 nM
- GI50 (T-47D breast): 3720 nM
- TGI (T-47D breast): > 51300 nM
- GI50 (SK-MEL-28 melanoma): 7400 nM
- TGI (SK-MEL-28 melanoma): > 100000 nM
- GI50 (PC-3 prostate): 39.7 nM
- TGI (PC-3 prostate): 6720 nM
- GI50 (ACHN renal): 149 nM
- TGI (ACHN renal): > 100000 nM
- GI50 (SN12C renal): < 22.9 nM
- TGI (SN12C renal): 1930 nM
- GI50 (CAKI-1 renal): 29.3 nM
- TGI (CAKI-1 renal): 1160 nM
- GI50 (SNB-75 CNS): 713 nM
- TGI (SNB-75 CNS): > 55300 nM
- GI50 (OVCAR-8 ovarian): 169 nM
- TGI (OVCAR-8 ovarian): > 36500 nM
- GI50 (CCRF-CEM leukemia): 217 nM
- TGI (CCRF-CEM leukemia): > 39700 nM
- GI50 (UO-31 renal): 461 nM
- GI50 (OVCAR-3 ovarian): 448 nM
- GI50 (MCF7 breast): < 10 nM
- TGI (MCF7 breast): > 32000 nM
- GI50 (SF-295 CNS): 55.5 nM
- TGI (SF-295 CNS): 16300 nM
- GI50 (RXF 393 renal): 393 nM
- TGI (RXF 393 renal): 6330 nM
- GI50 (786-0 renal): 37.9 nM
- TGI (786-0 renal): 17000 nM
- GI50 (RPMI-8226 leukemia): 111 nM
- TGI (RPMI-8226 leukemia): > 100000 nM
- GI50 (EKVX NSCLC): 618 nM
- TGI (EKVX NSCLC): 25800 nM
- GI50 (LOX IMVI melanoma): 76.5 nM
- TGI (LOX IMVI melanoma): > 27700 nM
- GI50 (NCI-H226 lung): 113 nM
- GI50 (NCI/ADR-RES ovarian): 147 nM
- TGI (NCI/ADR-RES ovarian): > 40400 nM
- GI50 (OVCAR-4 ovarian): 992 nM
- TGI (OVCAR-4 ovarian): > 100000 nM
- GI50 (HOP-92 NSCLC): 764 nM
- GI50 (UACC-257 melanoma): 448 nM
- TGI (UACC-257 melanoma): > 31600 nM
- GI50 (NCI-H23 lung): 280 nM
- TGI (NCI-H23 lung): 8720 nM
- GI50 (HCT-116 colon): < 10 nM
- TGI (HCT-116 colon): > 40700 nM
- GI50 (OVCAR-5 ovarian): 5360 nM
- TGI (OVCAR-5 ovarian): > 52600 nM
- GI50 (COLO 205 colon): < 20.2 nM
- TGI (COLO 205 colon): 1070 nM
- GI50 (HL-60(TB) leukemia): 982 nM
- TGI (HL-60(TB) leukemia): > 100000 nM
- GI50 (HCC-2998 colon): 75.2 nM
- TGI (HCC-2998 colon): 1260 nM
- GI50 (MDA-MB-435): 566 nM
- TGI (MDA-MB-435): > 27200 nM
- GI50 (KM12 colon): 93.3 nM
- TGI (KM12 colon): > 34100 nM
- GI50 (NCI-H460 lung): < 10 nM
- GI50 (HCT-15 colon): 134 nM
- TGI (HCT-15 colon): > 100000 nM
- GI50 (MOLT-4 leukemia): 348 nM
- TGI (MOLT-4 leukemia): > 100000 nM
- GI50 (U251 CNS): 135 nM
- TGI (U251 CNS): > 100000 nM
- GI50 (K-562 leukemia): 338 nM
- TGI (K-562 leukemia): > 100000 nM
- GI50 (NCI-H522 lung): 712 nM
- TGI (NCI-H522 lung): > 34800 nM
- GI50 (HS 578T breast): 2160 nM
- TGI (HS 578T breast): > 52800 nM
- GI50 (MALME-3M melanoma): 102 nM
- TGI (MALME-3M melanoma): 5360 nM

SMILES: CCOC(=O)C(NC(=O)Nc1ccc(C)cc1)(OCC)C(F)(F)F (configuration not stated)
- TGI (M14 melanoma): > 100000 nM
- TGI (HOP-62 NSCLC): > 100000 nM
- TGI (A498 renal): > 100000 nM
- TGI (SK-OV-3 ovarian): > 100000 nM
- TGI (BT-549 breast): > 100000 nM
- TGI (SNB-19 CNS): > 100000 nM
- TGI (SF-539 CNS): > 100000 nM
- TGI (IGROV1 ovarian): > 100000 nM
- TGI (SK-MEL-2 melanoma): > 100000 nM
- TGI (HT29 colon): > 100000 nM
- TGI (SF-268 CNS): > 100000 nM
- TGI (T-47D breast): > 100000 nM
- TGI (SK-MEL-28 melanoma): > 100000 nM
- TGI (ACHN renal): > 100000 nM
- TGI (SR leukemia): > 100000 nM
- TGI (CAKI-1 renal): > 100000 nM
- TGI (SNB-75 CNS): > 100000 nM
- TGI (CCRF-CEM leukemia): > 100000 nM
- TGI (UO-31 renal): > 100000 nM
- TGI (RXF 393 renal): > 100000 nM
- TGI (786-0 renal): > 100000 nM
- TGI (RPMI-8226 leukemia): > 100000 nM
- TGI (NCI/ADR-RES ovarian): > 100000 nM
- TGI (UACC-257 melanoma): > 100000 nM
- TGI (NCI-H23 lung): > 100000 nM
- TGI (HCT-116 colon): > 100000 nM
- TGI (OVCAR-5 ovarian): > 100000 nM
- TGI (COLO 205 colon): > 100000 nM
- TGI (HL-60(TB) leukemia): > 100000 nM
- TGI (HCC-2998 colon): > 100000 nM
- TGI (MDA-MB-435): > 100000 nM
- TGI (MOLT-4 leukemia): > 100000 nM
- TGI (U251 CNS): > 100000 nM
- TGI (K-562 leukemia): > 100000 nM
- TGI (HS 578T breast): > 100000 nM
